Assay results published in patent US20250034182A1, “PHOSPHOLIPID COMPOUNDS AND METHODS OF MAKING AND USING THE SAME” (priority 2021, published 2025).

Tests used:
Assay type in all cases: cell-based
[1] = tested on: Human Rhinovirus 16 (HRV16) in H1-HeLa cells; assay: H1-HeLa HRV-CTG EC50, HRV16 (Example Z); details: Rhinovirus A, HRV16, 96 h, MOI 0.25, 4 days, Celltiter-Glo, read-out: HRV 16 HELA EC50 (nM) (per Ex. Z)
Source text: (§1) H1-Hela cell line (ATCC, Manassas, VA, Cat #CRL-1958) was maintained in Dulbecco's […] (DMEM) (Corning, New York, NY, Cat #15-018CM) supplemented with 10% fetal bovine serum (FBS) (Hyclone, Logan, UT, Cat #SH30071-03), and 1× Penicillin-Streptomycin-L-Glutamine (Coming, New York, NY, Cat #30-009-C1). Cells were passaged 2 times per week to maintain sub-confluent densities and were used for experiments at passage 5-30. The Human Rhinovirus 1B (HRV1B) (ATCC, Manassas, VA, Cat #VR-1645), Human Rhinovirus 14 (HRV14) (ATCC, Manassas, VA, Cat #VR-284), and Human Rhinovirus 16 (HRV16) (ATCC, Manassas, VA, Cat #BR-283) was obtained through ATCC. Viral infection was monitored by determining viability of H1-HeLa cells as described below.
(§2) Test molecules are prepared in 100% DMSO in 384-well polypropylene plates (Greiner, Monroe, NC, Cat #784201) with 8 compounds per plate in grouped replicates of 4 at 10 serially diluted concentrations (1:3). The serially diluted compounds were transferred to low dead volume Echo plates (Labcyte, Sunnyvale, CA, Cat #LP-0200).
(§3) The test compounds were spotted to 384-well assay plates (Greiner, Monroe, NC, Cat #781091) at 200 nL per well using an Echo acoustic dispenser (Labcyte, Sunnyvale, CA). H1-HeLa cells were harvested and suspended in DMEM (supplemented with 2% FBS and 1× Penicillin-Streptomycin-L-Glutamine) and seeded to the pre-spotted assay plates at 5,000 cells per well in 30 μL. HRV1B, HRV14, and HRV16 was diluted in DMEM (supplemented with 2% FBS and 1× Penicillin-Streptomycin-L-Glutamine) at 97.1 million Infectious Units (IU) per mL, 151 million IU per mL and 221 million IU per mL respectively. 10 μL of virus per well was added to the assay plates containing cells and compounds, for an MOI of 0.5, 1.0, and 0.25 respectively. The assay plates were incubated for 4 days at 37° C. and 5% CO2. At the end of incubation, Celltiter-Glo (Promega, Madison, WI, Cat #G7573) was prepared. The assay plates and Celltiter-Glo reagent were equilibrated to room temperature for at least 15 minutes. 40 μL per well of Celltiter-Glo reagent was added and the plates were incubated at room temperature for 15 minutes before reading the luminescence signal on an EnVision multimode plate reader (Perkin Elmer, Waltham, MA). Rupintrivir was used as positive control and DMSO was used as negative control. Values were normalized to the positive and negative controls (as 0% and 100% replication, respectively) and data was fitted using non-linear regression analysis by Gilead's dose response tool. The EC50 value for each compound was defined as the concentration reducing viral replication by 50%.

[2] = tested on: Human Rhinovirus 14 (HRV14) in H1-HeLa cells; assay: H1-HeLa HRV-CTG EC50, HRV14 (Example Z); details: Rhinovirus B, HRV14, 96 h, MOI 1.0, 4 days, Celltiter-Glo, read-out: HRV14 HELA EC50 (nM) (per Ex. Z)
Source text: as §1, §2, §3

[3] = tested on: Respiratory syncytial virus recombinant with luciferase (RSV-Luc5) in NHBE cells; assay: NHBE RSV-Luc5 384-well assay (EC50 RSVFLUC NHBE-384, Example U); details: human respiratory syncytial virus, 72 h, read-out: RSV FLuc NHBE 384 EC50 (v2) (nM) (per Ex. U)
How it was run: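 Passage-2 NHBE cells (5,000/well) on pre-spotted compounds, 10-point 1:3 series, infected with RSV-Luc5 at MOI 1 and incubated 3 days at 37° C. Replication read by One-Glo luminescence, normalized to remdesivir (0%) and DMSO (100%); EC50 = concentration reducing replication by 50%, by non-linear regression.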

Structure (SMILES) | EC50 [1] [nM] | EC50 [2] [nM] | EC50 [3] [nM]
CCCCCCCCCCCCCCCCCCC[C@H](COP(=O)(O)OC[C@@]1(C#N)O[C@@H](c2ccc3c(N)ncnn23)[C@H](O)[C@@H]1O)Oc1cc(OC)c(C#N)c(OC)c1 [Compound 39, ((2R,3S,4R,5S)-5-(4-aminopyrrolo[2,1-f][1,2,4]triazin-7-yl)-2-cyano-3,4-dihydroxytetrahydrofuran-2-yl)methyl ((R)-2-(4-cyano-3,5-dimethoxyphenoxy)henicosyl) hydrogen phosphate] | 35 | 34 | 51
CCCCCCCCCCCCCCCCCCC[C@H](COP(=O)(O)OC[C@@]1(C#N)O[C@@H](c2ccc3c(N)ncnn23)[C@H](O)[C@@H]1O)Oc1ccc(C#N)c(OC(C)C)c1 [Compound 38, ((2R,3S,4R,5S)-5-(4-aminopyrrolo[2,1-f][1,2,4]triazin-7-yl)-2-cyano-3,4-dihydroxytetrahydrofuran-2-yl)methyl ((R)-2-(4-cyano-3-isopropoxyphenoxy)henicosyl) hydrogen phosphate] | 29 | 28 | 25
CCCCCCCCCCCCCCCCCCOC[C@H](COP(=O)(O)OC[C@@]1(C#N)O[C@@H](c2ccc3c(N)ncnn23)[C@H](O)[C@@H]1O)OCc1ccc(C#N)cc1OC [Compound 73, ((2R,3S,4R)-5-(4-aminopyrrolo[2,1-f][1,2,4]triazin-7-yl)-2-cyano-3,4-dihydroxytetrahydrofuran-2-yl)methyl ((R)-2-((4-cyano-2-methoxybenzyl)oxy)-3-(octadecyloxy)propyl) hydrogen phosphate] | 29 | 26 | 10
CCCCCCCCCCCCCCCCCCOC[C@H](COP(=O)(O)OC[C@@]1(C#N)O[C@@H](c2ccc3c(N)ncnn23)[C@H](O)[C@@H]1O)OCc1ccc(C#N)c(-n2cncn2)c1 [Compound 16, ((2R,3S,4R,5S)-5-(4-aminopyrrolo[2,1-f][1,2,4]triazin-7-yl)-2-cyano-3,4-dihydroxytetrahydrofuran-2-yl)methyl ((R)-2-((4-cyano-3-(1H-1,2,4-triazol-1-yl)benzyl)oxy)-3-(octadecyloxy)propyl) hydrogen phosphate] | 10 | 11 | < 3
CCCCCCCCCCCCCCCCC[C@H](COP(=O)(O)OC[C@@]1(C#N)O[C@@H](c2ccc3c(N)ncnn23)[C@H](O)[C@@H]1O)OCc1cc(F)cc(C#N)c1 [Compound 36, ((2R,3S,4R,5S)-5-(4-aminopyrrolo[2,1-f][1,2,4]triazin-7-yl)-2-cyano-3,4-dihydroxytetrahydrofuran-2-yl)methyl ((R)-2-((3-cyano-5-fluorobenzyl)oxy)nonadecyl) hydrogen phosphate] | 112 | 113 | 51
CCCCCCCCCCCCCCOC[C@H](COP(=O)(O)OC[C@@]1(C#N)O[C@@H](c2ccc3c(N)ncnn23)[C@H](O)[C@@H]1O)Oc1cc(C#N)ccn1 [Compound 69, ((2R,3S,4R)-5-(4-aminopyrrolo[2,1-f][1,2,4]triazin-7-yl)-2-cyano-3,4-dihydroxytetrahydrofuran-2-yl)methyl ((R)-2-((4-cyanopyridin-2-yl)oxy)-3-(tetradecyloxy)propyl) hydrogen phosphate] | 109 | 106 | 32
CCCCCCCCCCCCCCCC[C@@H](COP(=O)(O)OC[C@@]1(C#N)O[C@@H](c2ccc3c(N)ncnn23)[C@H](O)[C@@H]1O)OCc1cc(F)cc(C#N)c1 [Compound 79, ((2R,3S,4R,5S)-5-(4-aminopyrrolo[2,1-f][1,2,4]triazin-7-yl)-2-cyano-3,4-dihydroxytetrahydrofuran-2-yl)methyl ((S)-2-((3-cyano-5-fluorobenzyl)oxy)octadecyl) hydrogen phosphate] | 70 | 38 | 19
CCCCCCCCCCCCCCCC[C@H](COP(=O)(O)OC[C@@]1(C#N)O[C@@H](c2ccc3c(N)ncnn23)[C@H](O)[C@@H]1O)OCc1cc(F)cc(C#N)c1 [Compound 78, ((2R,3S,4R,5S)-5-(4-aminopyrrolo[2,1-f][1,2,4]triazin-7-yl)-2-cyano-3,4-dihydroxytetrahydrofuran-2-yl)methyl ((R)-2-((3-cyano-5-fluorobenzyl)oxy)octadecyl) hydrogen phosphate] | 66 | 38 | 31
CCCCCCCCCCCCCCCCCCC[C@H](COP(=O)(O)OC[C@@]1(C#N)O[C@@H](c2ccc3c(N)ncnn23)[C@H](O)[C@@H]1O)OCc1ccc(C#N)c(OC(C)C)c1 [Compound 28, ((2R,3S,4R,5S)-5-(4-aminopyrrolo[2,1-f][1,2,4]triazin-7-yl)-2-cyano-3,4-dihydroxytetrahydrofuran-2-yl)methyl ((R)-2-((4-cyano-3-isopropoxybenzyl)oxy)henicosyl) hydrogen phosphate] | 51 | 47 | 46
CCCCCCCCCCCCCCCCCCOC[C@H](COP(=O)(O)OC[C@@]1(C#N)O[C@@H](c2ccc3c(N)ncnn23)[C@H](O)[C@@H]1O)Oc1cccc(C#N)n1 [Compound 21, ((2R,3S,4R,5S)-5-(4-aminopyrrolo[2,1-f][1,2,4]triazin-7-yl)-2-cyano-3,4-dihydroxytetrahydrofuran-2-yl)methyl ((R)-2-((6-cyanopyridin-2-yl)oxy)-3-(octadecyloxy)propyl) hydrogen phosphate] | 50 | 60 | 29
CCCCCCCCCCCCCCCCCCCC[C@H](COP(=O)(O)OC[C@@]1(C#N)O[C@@H](c2ccc3c(N)ncnn23)[C@H](O)[C@@H]1O)Oc1cccc(C#N)c1 [Compound 51, ((2R,3S,4R,5S)-5-(4-aminopyrrolo[2,1-f][1,2,4]triazin-7-yl)-2-cyano-3,4-dihydroxytetrahydrofuran-2-yl)methyl ((R)-2-(3-cyanophenoxy)docosyl) hydrogen phosphate] | 34 | 49 | 56
CCCCCCCCCCCCCCCCCCOC[C@@H](COP(=O)(O)OC[C@@]1(C#N)O[C@@H](c2ccc3c(N)ncnn23)[C@H](O)[C@@H]1O)Oc1ccc(C#N)nc1 [Compound 72, ((2R,3S,4R,5S)-5-(4-aminopyrrolo[2,1-f][1,2,4]triazin-7-yl)-2-cyano-3,4-dihydroxytetrahydrofuran-2-yl)methyl ((S)-2-((6-cyanopyridin-3-yl)oxy)-3-(octadecyloxy)propyl) hydrogen phosphate] | 3 | 3 | 4
CCCCCCCCCCCCCCCCCCOC[C@H](COP(=O)(O)OC[C@@]1(C#N)O[C@@H](c2ccc3c(N)ncnn23)[C@H](O)[C@@H]1O)OCc1cccc(C#N)n1 [Compound 68, ((2R,3S,4R)-5-(4-aminopyrrolo[2,1-f][1,2,4]triazin-7-yl)-2-cyano-3,4-dihydroxytetrahydrofuran-2-yl)methyl ((R)-2-((6-cyanopyridin-2-yl)methoxy)-3-(octadecyloxy)propyl) hydrogen phosphate] | 20 | 35 | 9
CCCCCCCCCCCCCCCCCCCC[C@H](COP(=O)(O)OC[C@@]1(C#N)O[C@@H](c2ccc3c(N)ncnn23)[C@H](O)[C@@H]1O)OCc1cc(F)cc(C#N)c1 [Compound 34, ((2R,3S,4R)-5-(4-aminopyrrolo[2,1-f][1,2,4]triazin-7-yl)-2-cyano-3,4-dihydroxytetrahydrofuran-2-yl)methyl ((R)-2-((3-cyano-5-fluorobenzyl)oxy)docosyl) hydrogen phosphate] | 316 | 276 | 272
